# Measurements from PubChem BioAssay AID330 (DTP/NCI, 2004).
# Where “and” joins values, the source holds several entries; their conditions need not be identical. Equal values may be shown once. Toxic doses and inconclusive results are not listed.
# Tested on: P388 leukemia ip, CD2F1 mice, survival T/C
# Test: NCI In Vivo Anticancer Drug Screen. Data for tumor model P388 Leukemia (intraperitoneal) in CD2F1 (CDF1) mice
# Settings: endpoint: median survival time, higher = longer survival
# Procedure, shortened: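 Mice carrying the transplanted tumor received test compound or vehicle. Survival was recorded in each group, and the value is the treated-group measurement divided by that of the vehicle-treated control group.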
# [1] = dose: 100.0 mg/kg/injection, schedule: Q04DX003 (ip), vehicle: saline with Tween-80
# [2] = dose: 200.0 mg/kg/injection, schedule: Q04DX003 (ip), vehicle: saline with Tween-80
# [3] = dose: 50.0 mg/kg/injection, schedule: Q01DX005 (ip), vehicle: saline with Tween-80
# [4] = dose: 100.0 mg/kg/injection, schedule: Q01DX005 (ip), vehicle: saline with Tween-80
# [5] = dose: 12.5 mg/kg/injection, schedule: Q01DX009 (ip), vehicle: saline
# [6] = dose: 25.0 mg/kg/injection, schedule: Q01DX009 (ip), vehicle: saline
# [7] = dose: 50.0 mg/kg/injection, schedule: Q01DX009 (ip), vehicle: saline with Tween-80
# [8] = dose: 50.0 mg/kg/injection, schedule: Q01DX009 (ip), vehicle: saline
# [9] = dose: 100.0 mg/kg/injection, schedule: Q01DX009 (ip), vehicle: saline with Tween-80
# [10] = dose: 200.0 mg/kg/injection, schedule: Q01DX009 (ip), vehicle: saline with Tween-80
# [11] = dose: 60.0 mg/kg/injection, schedule: Q01DX005 (ip), vehicle: saline with Tween-80
# [12] = dose: 120.0 mg/kg/injection, schedule: Q01DX005 (ip), vehicle: saline with Tween-80
# [13] = dose: 240.0 mg/kg/injection, schedule: Q01DX005 (ip), vehicle: saline with Tween-80
# [14] = dose: 25.0 mg/kg/injection, schedule: Q01DX009 (ip), vehicle: saline with Tween-80
# [15] = dose: 6.25 mg/kg/injection, schedule: Q01DX009 (ip), vehicle: saline
# [16] = dose: 200.0 mg/kg/injection, schedule: Q04DX002 (ip), vehicle: saline with Tween-80
# [17] = dose: 400.0 mg/kg/injection, schedule: Q04DX002 (ip), vehicle: saline with Tween-80
# [18] = dose: 12.5 mg/kg/injection, schedule: Q01DX009 (ip), vehicle: saline with Tween-80
compound,measurement,setting,value
C1=CC2C3CCC(C3)C2C1 (stereo unspecified),T/C,[1],113 % of control
same,T/C,[2],100 % of control
same,T/C,"dose: 400.0 mg/kg/injection, schedule: Q04DX003 (ip), vehicle: saline with Tween-80",104 % of control
CCCCCCC(=O)/C=C/c1cc(Cl)cc(Cl)c1,T/C,[3],95 % of control
same,T/C,[4],91 % of control
same,T/C,"dose: 200.0 mg/kg/injection, schedule: Q01DX005 (ip), vehicle: saline with Tween-80",92 % of control
CC(C)C(NN)C(=O)O (stereo unspecified),T/C,[3],98 % of control
same,T/C,[4],116 % of control
O=C(NNC(=O)c1ccc(Cl)cc1Cl)c1ccco1,T/C,[5],100 % of control
same,T/C,[6],102 % of control and 89 % of control
same,T/C,[7],100 % of control
same,T/C,[8],102 % of control and 97 % of control
COC1OCN(C(C)(C)C)CC1(C)C (stereo unspecified),T/C,"dose: 15.0 mg/kg/injection, schedule: Q01DX009 (ip), vehicle: saline with Tween-80",95 % of control
same,T/C,"dose: 30.0 mg/kg/injection, schedule: Q01DX009 (ip), vehicle: saline with Tween-80",102 % of control
same,T/C,"dose: 60.0 mg/kg/injection, schedule: Q01DX009 (ip), vehicle: saline with Tween-80",121 % of control
CSC(=S)c1ccc(O)c2ccccc12,T/C,[7],114 % of control
same,T/C,[9],114 % of control
same,T/C,[10],105 % of control
CCOC(=O)c1c(C(=O)OCC)c2cccn2c2c1cnn2-c1ccccc1,T/C,[11],99 % of control
same,T/C,[12],93 % of control
same,T/C,[13],91 % of control
C#CCOc1ccc(C)cc1,T/C,[14],108 % of control
same,T/C,[7],108 % of control
same,T/C,[9],113 % of control
Nc1nc(N)nc(-c2cccnc2)n1,T/C,"dose: 100.0 mg/kg/injection, schedule: Q01DX001 (ip), vehicle: saline",109 % of control
same,T/C,"dose: 200.0 mg/kg/injection, schedule: Q01DX001 (ip), vehicle: saline",118 % of control
same,T/C,"dose: 400.0 mg/kg/injection, schedule: Q01DX001 (ip), vehicle: saline",100 % of control
C[C@]12CCC(=O)C=C1CC[C@H]1[C@@H]3CC[C@](O)(C(=O)CF)[C@@]3(C)C[C@H](O)[C@@]12F,T/C,"dose: 3.12 mg/kg/injection, schedule: Q01DX009 (ip), vehicle: saline",105 % of control
same,T/C,[15],102 % of control
same,T/C,[5],118 % of control
same,T/C,[6],90 % of control
Clc1cccc(N=Cc2ccc(C=Nc3cccc(Cl)c3)cc2)c1,T/C,"dose: 50.0 mg/kg/injection, schedule: Q01DX009 (ip), vehicle: Klucel (hydroxypropylcellulose) (HPC)",94 % of control
same,T/C,"dose: 100.0 mg/kg/injection, schedule: Q01DX009 (ip), vehicle: Klucel (hydroxypropylcellulose) (HPC)",98 % of control
CCC(c1ccc(OC)cc1)C(NCC(=O)NNC(=O)CNC(c1ccc(OC)cc1)C(CC)c1ccc(OC)cc1)c1ccc(OC)cc1 (stereo unspecified),T/C,[16],86 % of control
same,T/C,[17],92 % of control
CCOn1nnc2c([N+](=O)[O-])cccc21,T/C,[3],96 % of control
same,T/C,[4],92 % of control
CC(C)(C)c1ccc(-c2cc3nc(C(F)(F)F)cc(=O)n3[nH]2)cc1,T/C,[11],89 % of control
same,T/C,[12],89 % of control
same,T/C,[13],100 % of control
CCOC(=O)NSCC,T/C,[15],100 % of control
same,T/C,[5],103 % of control
same,T/C,[6],105 % of control
O=C(N=Nc1c(O)[nH]c2c(Cl)cc(Cl)cc12)C(=O)Nc1cccc(C(F)(F)F)c1,T/C,"dose: 6.25 mg/kg/injection, schedule: Q01DX009 (ip), vehicle: saline with Tween-80",95 % of control
same,T/C,[18],93 % of control
same,T/C,[14],95 % of control
COC(=O)/C=C1/C(=O)N(C)c2ccccc21,T/C,[18],98 % of control and 102 % of control
same,T/C,[14],102 % of control and 111 % of control and 90 % of control
same,T/C,[7],100 % of control and 106 % of control and 92 % of control
same,T/C,[9],106 % of control and 110 % of control and 113 % of control
CN1CCC/C1=C\C(=O)c1ccncc1,T/C,"dose: 50.0 mg/kg/injection, schedule: Q01DX005 (ip), vehicle: saline",96 % of control
same,T/C,"dose: 100.0 mg/kg/injection, schedule: Q01DX005 (ip), vehicle: saline",112 % of control
same,T/C,"dose: 200.0 mg/kg/injection, schedule: Q01DX005 (ip), vehicle: saline",124 % of control
CN(C)C(=O)n1cc(Cl)c(=O)c2c3ncn(C)c3ccc21,T/C,"dose: 60.0 mg/kg/injection, schedule: Q01DX005 (ip), vehicle: Klucel (hydroxypropylcellulose) (HPC)",108 % of control
same,T/C,"dose: 100.0 mg/kg/injection, schedule: Q01DX005 (ip), vehicle: Klucel (hydroxypropylcellulose) (HPC)",101 % of control
same,T/C,"dose: 200.0 mg/kg/injection, schedule: Q01DX005 (ip), vehicle: Klucel (hydroxypropylcellulose) (HPC)",100 % of control
CCOc1ccn(CC(=O)N2CCOCC2)c(=O)n1,T/C,"dose: 100.0 mg/kg/injection, schedule: Q04DX003 (ip), vehicle: water",90 % of control
same,T/C,"dose: 200.0 mg/kg/injection, schedule: Q04DX003 (ip), vehicle: water",100 % of control
same,T/C,"dose: 400.0 mg/kg/injection, schedule: Q04DX003 (ip), vehicle: water",90 % of control
CN(C)P1(=S)OCC(C(C)(C)C)CN1C (stereo unspecified),T/C,[1],102 % of control
same,T/C,[2],112 % of control
COC(=O)C/C(C)=N/SC(c1ccccc1)(c1ccccc1)c1ccccc1,T/C,"dose: 100.0 mg/kg/injection, schedule: Q04DX002 (ip), vehicle: saline with Tween-80",95 % of control
same,T/C,[16],101 % of control
same,T/C,[17],94 % of control
O=C(NCCCCOc1ccc([N+](=O)[O-])cc1Cl)NC1CCCCC1,T/C,"dose: 50.0 mg/kg/injection, schedule: Q01DX001 (ip), vehicle: saline with Tween-80",90 % of control
same,T/C,"dose: 100.0 mg/kg/injection, schedule: Q01DX001 (ip), vehicle: saline with Tween-80",100 % of control
same,T/C,"dose: 200.0 mg/kg/injection, schedule: Q01DX001 (ip), vehicle: saline with Tween-80",100 % of control
O=C(c1ccc(Cl)cc1)c1no[n+]([O-])c1C(=O)c1ccc(Cl)cc1,T/C,[14],115 % of control
same,T/C,[7],111 % of control
same,T/C,[10],118 % of control
CCOC1=Nc2ccccc2C1(C)CCO (stereo unspecified),T/C,[11],96 % of control
same,T/C,[12],101 % of control
same,T/C,[13],96 % of control
CCn1c(=O)c2c(NC)snc2n(CC)c1=O,T/C,[8],97 % of control
same,T/C,"dose: 100.0 mg/kg/injection, schedule: Q01DX009 (ip), vehicle: saline",95 % of control
same,T/C,"dose: 200.0 mg/kg/injection, schedule: Q01DX009 (ip), vehicle: saline",98 % of control
COc1cc(OC)c(-c2cc3ccc(OCc4ccccc4)cc3oc2=O)cc1OC,T/C,"dose: 100.0 mg/kg/injection, schedule: Q01DX001 (ip), vehicle: Klucel (hydroxypropylcellulose) (HPC)",102 % of control
same,T/C,"dose: 200.0 mg/kg/injection, schedule: Q01DX001 (ip), vehicle: Klucel (hydroxypropylcellulose) (HPC)",105 % of control
same,T/C,"dose: 400.0 mg/kg/injection, schedule: Q01DX001 (ip), vehicle: Klucel (hydroxypropylcellulose) (HPC)",94 % of control
CC(C)CC(=O)CC(O)(C(F)(F)F)C(F)(F)F,T/C,[9],109 % of control
same,T/C,[10],113 % of control
